# Data as given in ChEMBL document CHEMBL3785074, “Molecular modeling and snake venom phospholipase A2 inhibition by phenolic compounds: Structure-activity relationship” (Eur J Med Chem, 2016).
# The source made the active and inactive calls. No cut-off for these calls is given here.
# Columns and labels:
# [1] = Protective activity against Daboia russellii venom-induced hemorrhage in intradermally dosed Swiss albino mouse at 100 mmol assessed as hemorhagic lesion by measuring minimal […] dose preincubated with venom for 1 hr followed by administration to mouse measured after 24 hrs (reference value: 5 ug); assay type: functional, Daboia russelii
# [2] = Lipophilicity, log P of compound; assay type: physicochemical; conditions: octanol/water; read-out: logP
# Daboia russelii [3] = test: (§1) Protective activity against Daboia russellii venom-induced mortality in Swiss albino mouse at 100 mmol, iv by measuring venom LD50 administered immediately after venom injection measured after 24 hrs (reference value: 2.28ug); assay type: functional
# Daboia russelii [4] = test system: Daboia russelii
# Naja kaouthia [5] = test system: Naja kaouthia
# Description: Protective activity against Naja kaouthia venom-induced mortality in Swiss albino mouse at 100 mmol, iv by measuring venom LD50 administered immediately after venom injection measured after 24 hrs (Rvb = 2.82 ug)
# [6] = Protective activity against Daboia russellii venom-induced hemorrhage in Swiss albino mouse at 100 mmol, iv assessed as hemorhagic lesion administered immediately after venom injection measured after 24 hrs relative to untreated control; assay type: functional, Daboia russelii
# [7] = (§2) Protective activity against Daboia russellii venom-induced hemorrhage in Swiss albino mouse at 100 mmol, iv assessed as hemorhagic lesion by measuring […] administered immediately after venom injection measured after 24 hrs (Rvb =5 ug); assay type: functional, Daboia russelii
# [8] = Protective activity against Daboia russellii venom-induced hemorrhage in intradermally dosed Swiss albino mouse at 100 mmol assessed as hemorhagic lesion preincubated with venom for 1 hr followed by administration to mouse measured after 24 hrs relative to untreated control; assay type: functional, Daboia russelii
# Naja kaouthia [9] = test system: Naja kaouthia; remark: listed apart in the source
# [10] = as §1; assay type: functional, Daboia russelii
# [11] = Protective activity against Naja kaouthia venom-induced mortality in Swiss albino mouse at 100 mmol, iv by measuring venom LD50 preincubated with venom for 1 hr followed by administration to mouse measured after 24 hrs (reference value: 2.82 ug); assay type: functional
# [12] = Protective activity against Daboia russellii venom-induced mortality by measuring venom LD50 in Swiss albino mouse at 100 mmol, iv preincubated with venom for 1 hr followed by administration to mouse measured after 24 hrs (reference value: 2.28 ug); assay type: functional, Daboia russelii
# [13] = Protective activity against Naja kaouthia venom-induced mortality in Swiss albino mouse at 100 mmol, iv preincubated with venom for 1 hr followed by administration to mouse measured after 24 hrs relative to untreated control; assay type: functional
# [14] = Protective activity against Daboia russellii venom-induced mortality in Swiss albino mouse at 100 mmol, iv administered immediately after venom injection measured after 24 hrs relative to untreated control; assay type: functional, Daboia russelii
# [15] = Protective activity against Daboia russellii venom-induced mortality in Swiss albino mouse at 100 mmol, iv preincubated with venom for 1 hr followed by administration to mouse measured after 24 hrs relative to untreated control; assay type: functional, Daboia russelii
# [16] = Protective activity against Naja kaouthia venom-induced mortality in Swiss albino mouse at 100 mmol, iv administered immediately after venom injection measured after 24 hrs relative to untreated control; assay type: functional
# [17] = Protective activity against Naja kaouthia venom-induced mortality in Swiss albino mouse at 100 mmol, iv by measuring venom LD50 administered immediately after venom injection measured after 24 hrs (reference value: 2.82 ug); assay type: functional
# Daboia russelii [18] = test: as §2; assay type: functional
Compound,MHC [1],logP [2],LD50 (Daboia russelii [3]),LD50 (Daboia russelii [4]),LD50 (Naja kaouthia [5]),fold change (FC) [6],MHC [7],fold change (FC) [8],LD50 (Naja kaouthia [9]),LD50 [10],LD50 [11],LD50 [12],fold change (FC) [13],fold change (FC) [14],fold change (FC) [15],fold change (FC) [16],LD50 [17],MHC (Daboia russelii [18])
"COc1ccccc1OC [1,2-DIMETHOXYBENZENE]",10 µg,1.44,inactive,inactive,inactive,1,5 µg,2,inactive,,,,,,,,,
COc1ccccc1C=O [2-METHOXYBENZALDEHYDE],10 µg,1.15,,,inactive,1,5 µg,2,,100 µg,6 µg,18 µg,2.1,2.5,8,,,
COc1ccc(C=O)cc1O [ISOVANILLIN],10 µg,,inactive,inactive,inactive,2,10 µg,2,inactive,,,,,,,,,
Oc1ccc(O)cc1 [HYDROQUINONE],20 µg,1.48,inactive,inactive,inactive,2,10 µg,4,inactive,,,,,,,,,
"COc1ccc(OC)cc1 [1,4-DIMETHOXYBENZENE]",10 µg,1.47,inactive,inactive,inactive,1,5 µg,2,inactive,,,,,,,,,
Oc1cccc(O)c1 [RESORCINOL],10 µg,1.48,inactive,inactive,inactive,2,10 µg,2,inactive,,,,,,,,,
O=Cc1cccc(O)c1O,40 µg,1.19,inactive,,inactive,2,10 µg,8,,,3 µg,5 µg,1,,2.1,,,
Oc1ccccc1O [CATECHOL],25 µg,1.48,inactive,inactive,inactive,3,15 µg,5,inactive,,,,,,,,,
O=Cc1cccc(O)c1 [3-HYDROXYBENZALDEHYDE],30 µg,,,,,3,15 µg,6,,,,,1,1.25,2.6,,,
Oc1ccccc1 [PHENOL],10 µg,1.76,inactive,inactive,inactive,1,5 µg,2,inactive,,,,,,,,,
COc1ccc(C=O)cc1,15 µg,1.19,inactive,inactive,inactive,1,5 µg,3,inactive,,,,,,,,,
COc1cc(C=O)ccc1O [VANILLIN],20 µg,1.87,,,,1,5 µg,4,,150 µg,9 µg,22 µg,3.2,3.75,9.8,2,10 µg,
COc1cccc(C=O)c1,15 µg,1.15,,,inactive,1,5 µg,3,,100 µg,9 µg,25 µg,3.2,2.5,11.2,,,
COc1ccccc1 [ANISOLE],10 µg,1.44,inactive,inactive,inactive,1,5 µg,2,inactive,,,,,,,,,
O=Cc1ccc(O)cc1 [4-HYDROXYBENZALDEHYDE],15 µg,1.15,,,inactive,2,10 µg,3,,50 µg,3 µg,6 µg,1,1.25,2.6,,,
O=Cc1cc(O)ccc1O,35 µg,1.53,,,inactive,3,15 µg,7,,50 µg,3 µg,5 µg,1,1.25,2.1,,,
"COc1cccc(OC)c1 [1,3-DIMETHOXYBENZENE]",10 µg,1.44,inactive,inactive,inactive,1,5 µg,2,inactive,,,,,,,,,
O=Cc1ccc(O)c(O)c1 [PROTOCATECHUALDEHYDE],60 µg,2,,,inactive,4,20 µg,12,,50 µg,3 µg,6 µg,1,1.25,2.6,,,
COc1ccc(/C=N/O)c(OC)c1,5 µg,,,,inactive,,,1,,50 µg,3 µg,6 µg,1,1.25,2.6,,,inactive
COc1ccc(O)c(C=O)c1,20 µg,1.93,,,,2,10 µg,4,,100 µg,6 µg,11 µg,2.1,2.5,4.9,1.6,8 µg,
CCOc1cc(C=O)ccc1O [ETHYL VANILLIN],15 µg,1.81,,,,2,10 µg,3,,100 µg,3 µg,11 µg,1,2.5,4.9,2,10 µg,
